Measured values as given in PubChem BioAssay AID1918953 (Molecular Pharmacology Branch, DTP, NCI, 2023).
Where “and” joins values, the source holds several entries; their conditions need not be identical. Equal values may be shown once.

Test system: MDA-MB-231 complex spheroid viability
Experiment: Anticancer human tumor MDA-MB-231/ATCC cell line growth inhibition;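 also: drug exposure lasted 7 days starting on day 3 of spheroid growth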
Conditions: for viability, T/C: stronger effect = lower value
Procedure, shortened: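 Complex spheroids of tumor cells with HUVEC and human MSCs, exposed to iadademstat combined with other agents. Each agent tested in half-log steps from near clinical Cmax (else 10 microM top), DMSO ≤0.25%.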

[1] = curve of first compound, second compound 0.1 µM
[2] = curve of first compound, second compound 0.316 µM
[3] = curve of first compound, second compound 1 µM
[4] = curve of first compound, second compound 3.16 µM
[5] = curve of first compound, second compound 10 µM
[6] = second compound 0.1 µM, first compound 0.00949 µM
[7] = second compound 0.1 µM, first compound 0.03 µM
[8] = second compound 0.1 µM, first compound 0.0949 µM
[9] = second compound 0.1 µM, first compound 0.3 µM
[10] = second compound 0.316 µM, first compound 0.00949 µM
[11] = second compound 0.316 µM, first compound 0.03 µM
[12] = second compound 0.316 µM, first compound 0.0949 µM
[13] = second compound 0.316 µM, first compound 0.3 µM
[14] = second compound 1 µM, first compound 0.00949 µM
[15] = second compound 1 µM, first compound 0.03 µM
[16] = second compound 1 µM, first compound 0.0949 µM
[17] = second compound 1 µM, first compound 0.3 µM
[18] = second compound 3.16 µM, first compound 0.00949 µM
[19] = second compound 3.16 µM, first compound 0.03 µM
[20] = second compound 3.16 µM, first compound 0.0949 µM
[21] = second compound 3.16 µM, first compound 0.3 µM
[22] = second compound 10 µM, first compound 0.00949 µM
[23] = second compound 10 µM, first compound 0.03 µM
[24] = second compound 10 µM, first compound 0.0949 µM
[25] = second compound 10 µM, first compound 0.3 µM
[26] = second compound 0.1 µM, first compound 0.00316 µM
[27] = second compound 0.1 µM, first compound 0.01 µM
[28] = second compound 0.1 µM, first compound 0.0316 µM
[29] = second compound 0.1 µM, first compound 0.1 µM
[30] = second compound 0.316 µM, first compound 0.00316 µM
[31] = second compound 0.316 µM, first compound 0.01 µM
[32] = second compound 0.316 µM, first compound 0.0316 µM
[33] = second compound 0.316 µM, first compound 0.1 µM
[34] = second compound 1 µM, first compound 0.00316 µM
[35] = second compound 1 µM, first compound 0.01 µM
[36] = second compound 1 µM, first compound 0.0316 µM
[37] = second compound 1 µM, first compound 0.1 µM
[38] = second compound 3.16 µM, first compound 0.00316 µM
[39] = second compound 3.16 µM, first compound 0.01 µM
[40] = second compound 3.16 µM, first compound 0.0316 µM
[41] = second compound 3.16 µM, first compound 0.1 µM
[42] = second compound 10 µM, first compound 0.00316 µM
[43] = second compound 10 µM, first compound 0.01 µM
[44] = second compound 10 µM, first compound 0.0316 µM
[45] = second compound 10 µM, first compound 0.1 µM

In the case of `Nc1ccn(C2OC(CO)C(O)C2(F)F)c(=O)n1` (stereo not given) + NC1CCC(NC2CC2c2ccccc2)CC1, the IC50 [1] is reported as < 0.949 nM, the IC50 [2] is reported as < 0.949 nM and the IC50 [3] is reported as < 0.949 nM. For the same compound, the IC50 [4] was < 0.949 nM, the IC50 [5] was < 0.949 nM and the viability, T/C (second compound 0.1 µM, first compound 0.000949 µM) was 23.4%. For the same compound, the viability, T/C (second compound 0.1 µM, first compound 0.003 µM) was 18.9%, the viability, T/C [6] was 17.4% and the viability, T/C [7] was 15.9%. For the same compound, the viability, T/C [8] was 8.32%, the viability, T/C [9] was 6.14% and the viability, T/C (second compound 0.316 µM, first compound 0.000949 µM) was 24.3%. The viability, T/C (second compound 0.316 µM, first compound 0.003 µM) was 19.6%, the viability, T/C [10] was 19% and the viability, T/C [11] was 16%. The viability, T/C [12] was 8.93%, the viability, T/C [13] was 6.74% and the viability, T/C (second compound 1 µM, first compound 0.000949 µM) was 22.2%. For the same compound, the viability, T/C (second compound 1 µM, first compound 0.003 µM) was 17.9%, the viability, T/C [14] was 18.2% and the viability, T/C [15] was 13.6%. The viability, T/C [16] was 8.49%, the viability, T/C [17] was 7.33% and the viability, T/C (second compound 3.16 µM, first compound 0.000949 µM) was 23.7%. For the same compound, the viability, T/C (second compound 3.16 µM, first compound 0.003 µM) was 18.9%, the viability, T/C [18] was 17.2% and the viability, T/C [19] was 12.8%. For the same compound, the viability, T/C [20] was 9.01%, the viability, T/C [21] was 6.68% and the viability, T/C (second compound 10 µM, first compound 0.000949 µM) was 19.2%. It also gave a viability, T/C (second compound 10 µM, first compound 0.003 µM) of 19.2%, a viability, T/C [22] of 14.4% and a viability, T/C [23] of 10.3%. The viability, T/C [24] was 6.87% and the viability, T/C [25] was 5.84%.
Work on `NS(=O)(=O)OCC1CC(n2ccc3c(NC4CCc5ccccc54)ncnc32)CC1O` (stereo not given) + NC1CC1c1ccc(-c2cccc(O)c2)cc1 yielded an IC50 [1] of 82.3 nM, an IC50 [2] of 75.3 nM and an IC50 [3] of 82 nM. For the same compound, the IC50 [4] was 70.6 nM, the IC50 [5] was 36.4 nM and the viability, T/C [6] was 128%. The viability, T/C [7] was 94.3%, the viability, T/C [8] was 44.1% and the viability, T/C [9] was 28.6%. The viability, T/C (second compound 0.1 µM, first compound 0.949 µM) was 28.8%, the viability, T/C (second compound 0.1 µM, first compound 3 µM) was 27.9% and the viability, T/C [10] was 118%. For the same compound, the viability, T/C [11] was 93.5%, the viability, T/C [12] was 39.1% and the viability, T/C [13] was 27.2%. The viability, T/C (second compound 0.316 µM, first compound 0.949 µM) was 23.9%, the viability, T/C (second compound 0.316 µM, first compound 3 µM) was 27.8% and the viability, T/C [14] was 114%. It also gave a viability, T/C [15] of 90.1%, a viability, T/C [16] of 44.2% and a viability, T/C [17] of 29.3%. The viability, T/C (second compound 1 µM, first compound 0.949 µM) was 25.6%, the viability, T/C (second compound 1 µM, first compound 3 µM) was 28.4% and the viability, T/C [18] was 116%. It also gave a viability, T/C [19] of 78.9%, a viability, T/C [20] of 40.8% and a viability, T/C [21] of 27%. It also gave a viability, T/C (second compound 3.16 µM, first compound 0.949 µM) of 30.4%, a viability, T/C (second compound 3.16 µM, first compound 3 µM) of 28.3% and a viability, T/C [22] of 68.6%. It also gave a viability, T/C [23] of 53.4%, a viability, T/C [24] of 34.8% and a viability, T/C [25] of 27%. It also gave a viability, T/C (second compound 10 µM, first compound 0.949 µM) of 26.3% and a viability, T/C (second compound 10 µM, first compound 3 µM) of 20.2%.
In the case of `CCN(c1cc(-c2ccc(CN3CCOCC3)cc2)cc(C(=O)NCc2c(C)cc(C)[nH]c2=O)c1C)C1CCOCC1`, the viability, T/C (compound 0.00949 µM) is reported as 90.6% and 108%, the viability, T/C (compound 0.03 µM) is reported as 93.6% and 88.1% and the viability, T/C (compound 0.0949 µM) is reported as 82.4% and 61.5%. The viability, T/C (compound 0.3 µM) was 74.9% and 42.3%, the viability, T/C (compound 0.949 µM) was 66.3% and 25.8% and the viability, T/C (compound 3 µM) was 57.7% and 15%.
For `Cn1ncnc1C1c2n[nH]c(=O)c3cc(F)cc(c23)NC1c1ccc(F)cc1` (stereo not given), the viability, T/C (compound 0.000316 µM) was 91% and 96.8%, the viability, T/C (compound 0.001 µM) was 95.8% and 101% and the viability, T/C (compound 0.00316 µM) was 84.4% and 94.8%. The viability, T/C (compound 0.01 µM) was 85.8% and 78.8%, the viability, T/C (compound 0.0316 µM) was 78.8% and 65.3% and the viability, T/C (compound 0.1 µM) was 74.7% and 72.4%. For the same compound, the IC50 (curve of compound) was > 100 nM.
In the case of `COc1cc(Nc2ncc3c(n2)-c2ccc(Cl)cc2C(c2c(F)cccc2OC)=NC3)ccc1C(=O)O` + NC1CC1c1ccc(-c2cccc(O)c2)cc1, the IC50 [1] is reported as < 3.16 nM, the IC50 [2] is reported as < 3.16 nM and the IC50 [3] is reported as < 3.16 nM. The IC50 [4] was < 3.16 nM, the IC50 [5] was < 3.16 nM and the viability, T/C [26] was 43.8%. For the same compound, the viability, T/C [27] was 48.9%, the viability, T/C [28] was 43% and the viability, T/C [29] was 40.8%. For the same compound, the viability, T/C (second compound 0.1 µM, first compound 0.316 µM) was 32.4%, the viability, T/C (second compound 0.1 µM, first compound 1 µM) was 21.9% and the viability, T/C [30] was 40.7%. For the same compound, the viability, T/C [31] was 40%, the viability, T/C [32] was 38.5% and the viability, T/C [33] was 34.7%. It also gave a viability, T/C (second compound 0.316 µM, first compound 0.316 µM) of 27.3%, a viability, T/C (second compound 0.316 µM, first compound 1 µM) of 21.4% and a viability, T/C [34] of 37.5%. For the same compound, the viability, T/C [35] was 39.9%, the viability, T/C [36] was 38.3% and the viability, T/C [37] was 38%. For the same compound, the viability, T/C (second compound 1 µM, first compound 0.316 µM) was 25.1%, the viability, T/C (second compound 1 µM, first compound 1 µM) was 18.6% and the viability, T/C [38] was 41.4%. It also gave a viability, T/C [39] of 41.4%, a viability, T/C [40] of 41.1% and a viability, T/C [41] of 35%. It also gave a viability, T/C (second compound 3.16 µM, first compound 0.316 µM) of 28.1%, a viability, T/C (second compound 3.16 µM, first compound 1 µM) of 18.9% and a viability, T/C [42] of 30.7%. It also gave a viability, T/C [43] of 33%, a viability, T/C [44] of 31.3% and a viability, T/C [45] of 31.1%. It also gave a viability, T/C (second compound 10 µM, first compound 0.316 µM) of 22.4% and a viability, T/C (second compound 10 µM, first compound 1 µM) of 15.7%.
With `O=C(C=Cn1cnc(-c2cc(C(F)(F)F)cc(C(F)(F)F)c2)n1)NNc1cnccn1` the viability, T/C (compound 0.00316 µM) was 61.8% and 35.1%, the viability, T/C (compound 0.01 µM) was 32.6% and 31.3% and the viability, T/C (compound 0.0316 µM) was 11.5% and 11.8%. The viability, T/C (compound 0.1 µM) was 9.25% and 3.52%, the viability, T/C (compound 0.316 µM) was 10.8% and 3.53% and the viability, T/C (compound 1 µM) was 5.27% and 4.37%. The IC50 (curve of compound) was 5.04 nM and < 3.16 nM.
`CC[C@@]1(O)C(=O)OCc2c1cc1n(c2=O)Cc2cc3c(CN(C)C)c(O)ccc3nc2-1` + NC1CC1c1ccc(-c2cccc(O)c2)cc1 was tested, and the IC50 [1] was 1.63 nM, the IC50 [2] was 0.845 nM and the IC50 [3] was 0.672 nM. For the same compound, the IC50 [4] was 1.04 nM, the IC50 [5] was < 0.316 nM and the viability, T/C (second compound 0.1 µM, first compound 0.000316 µM) was 72.6%. For the same compound, the viability, T/C (second compound 0.1 µM, first compound 0.001 µM) was 62.5%, the viability, T/C [26] was 33.1% and the viability, T/C [27] was 23.5%. It also gave a viability, T/C [28] of 27.3%, a viability, T/C [29] of 22% and a viability, T/C (second compound 0.316 µM, first compound 0.000316 µM) of 61.8%. The viability, T/C (second compound 0.316 µM, first compound 0.001 µM) was 48.1%, the viability, T/C [30] was 28.9% and the viability, T/C [31] was 25.3%. It also gave a viability, T/C [32] of 26%, a viability, T/C [33] of 20.4% and a viability, T/C (second compound 1 µM, first compound 0.000316 µM) of 62.3%. It also gave a viability, T/C (second compound 1 µM, first compound 0.001 µM) of 43.6%, a viability, T/C [34] of 32% and a viability, T/C [35] of 25.1%. It also gave a viability, T/C [36] of 24.6%, a viability, T/C [37] of 20.5% and a viability, T/C (second compound 3.16 µM, first compound 0.000316 µM) of 57.2%. It also gave a viability, T/C (second compound 3.16 µM, first compound 0.001 µM) of 50.8%, a viability, T/C [38] of 29.4% and a viability, T/C [39] of 25.5%. It also gave a viability, T/C [40] of 25%, a viability, T/C [41] of 20.9% and a viability, T/C (second compound 10 µM, first compound 0.000316 µM) of 49%. For the same compound, the viability, T/C (second compound 10 µM, first compound 0.001 µM) was 36.1%, the viability, T/C [42] was 24.3% and the viability, T/C [43] was 22.5%. It also gave a viability, T/C [44] of 22.3% and a viability, T/C [45] of 16.2%.
